Measured values published in ChEMBL document CHEMBL5620360, “Design, synthesis and biological evaluation of 4-(4-aminophenoxy)picolinamide derivatives as potential antitumor agents” (Eur J Med Chem, 2023).
The source made the active and inactive calls. No cut-off for these calls is given here.

What was measured:
A549 [1] = experiment: Induction of cell cycle arrest in human A549 cells assessed as accumulation of cells at G2 phase at 5 uM incubated for 24 hrs by propidium iodide staining based flow cytometry (reference value: 7.36%); format: functional
A549 [2] = experiment: Induction of apoptosis in human A549 cells assessed as late apoptotic cells at 5 uM measured after 24 hrs by AnnexinV-FITC/PI staining based flow cytometry (reference value: 1.47%); format: functional
HeLa = experiment: Antiproliferative activity against human HeLa cells assessed as reduction in cell viability incubated for 72 hrs by MTT assay; format: functional, cell-based; details: Homo sapiens, HeLa, 72 h; read-out: IC50
A549 [3] = experiment: Induction of apoptosis in human A549 cells assessed as early apoptotic cells at […] measured after 24 hrs by AnnexinV-FITC/PI staining based flow cytometry (reference value: 1.26%); format: functional; details: dose 2.5 µM
[4] = AUC(0 to infinity) in Sprague-Dawley rat at 1 mg/kg, iv by LC-MS/MS analysis; format: ADME, organism-based; details: in vivo
[5] = AUC(0 to t) in Sprague-Dawley rat at 1 mg/kg, iv by LC-MS/MS analysis; format: ADME, organism-based; details: in vivo
A549 [6] = experiment: Induction of cell cycle arrest in human A549 cells assessed as accumulation of cells at G1 phase at 5 uM incubated for 24 hrs by propidium iodide staining based flow cytometry (reference value: 54.46%); format: functional
A549 [7] = experiment: Induction of cell cycle arrest in human A549 cells assessed as accumulation of cells at G1 phase at 10 uM incubated for 24 hrs by propidium iodide staining based flow cytometry (reference value: 54.46%); format: functional
A549 [8] = experiment: Induction of cell cycle arrest in human A549 cells assessed as accumulation of cells at G1 phase at […] incubated for 24 hrs by propidium iodide staining based flow cytometry (reference value: 54.46%); format: functional; details: dose 2.5 µM
[9] = AUC(0 to infinity) in Sprague-Dawley rat at 10 mg/kg, po by LC-MS/MS analysis; format: ADME, organism-based; details: in vivo
[10] = target: Mast/stem cell growth factor receptor Kit (Homo sapiens, UniProt P10721); experiment: Inhibition of c-Kit (unknown origin)
Mast/stem cell growth factor receptor Kit, sequence (P10721 whole entry): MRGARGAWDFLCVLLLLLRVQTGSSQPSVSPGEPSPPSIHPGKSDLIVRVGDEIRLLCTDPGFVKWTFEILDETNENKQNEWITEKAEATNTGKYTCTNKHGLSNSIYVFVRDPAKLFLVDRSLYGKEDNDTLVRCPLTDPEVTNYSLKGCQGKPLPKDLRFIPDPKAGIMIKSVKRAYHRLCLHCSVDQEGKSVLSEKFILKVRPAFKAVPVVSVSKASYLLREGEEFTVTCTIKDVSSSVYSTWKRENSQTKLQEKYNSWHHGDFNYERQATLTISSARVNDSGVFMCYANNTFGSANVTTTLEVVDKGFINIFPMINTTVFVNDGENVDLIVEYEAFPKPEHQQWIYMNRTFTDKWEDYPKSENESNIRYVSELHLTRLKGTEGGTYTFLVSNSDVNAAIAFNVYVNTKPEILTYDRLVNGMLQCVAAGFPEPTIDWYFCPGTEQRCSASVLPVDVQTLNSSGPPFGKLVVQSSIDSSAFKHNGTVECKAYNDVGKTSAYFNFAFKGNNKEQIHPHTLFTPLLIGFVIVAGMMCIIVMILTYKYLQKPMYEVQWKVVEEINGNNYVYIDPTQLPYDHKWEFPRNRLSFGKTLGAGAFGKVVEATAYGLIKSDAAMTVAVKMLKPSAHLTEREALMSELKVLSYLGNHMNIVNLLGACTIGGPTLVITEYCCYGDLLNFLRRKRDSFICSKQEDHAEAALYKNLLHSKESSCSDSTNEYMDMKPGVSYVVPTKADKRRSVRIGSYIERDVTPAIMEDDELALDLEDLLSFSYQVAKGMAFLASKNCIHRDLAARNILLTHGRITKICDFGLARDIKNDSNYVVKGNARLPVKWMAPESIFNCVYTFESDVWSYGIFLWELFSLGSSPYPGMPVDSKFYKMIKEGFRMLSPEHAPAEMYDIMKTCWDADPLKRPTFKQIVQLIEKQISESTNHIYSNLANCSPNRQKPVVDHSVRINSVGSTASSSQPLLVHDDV

[11] = Half life in Sprague-Dawley rat at 1 mg/kg, iv by LC-MS/MS analysis; format: ADME, organism-based; details: in vivo
[12] = target: Dual specificity mitogen-activated protein kinase kinase 1 (Homo sapiens, UniProt Q02750); experiment: Inhibition of MEK1 (unknown origin)
Dual specificity mitogen-activated protein kinase kinase 1, sequence (Q02750 whole entry): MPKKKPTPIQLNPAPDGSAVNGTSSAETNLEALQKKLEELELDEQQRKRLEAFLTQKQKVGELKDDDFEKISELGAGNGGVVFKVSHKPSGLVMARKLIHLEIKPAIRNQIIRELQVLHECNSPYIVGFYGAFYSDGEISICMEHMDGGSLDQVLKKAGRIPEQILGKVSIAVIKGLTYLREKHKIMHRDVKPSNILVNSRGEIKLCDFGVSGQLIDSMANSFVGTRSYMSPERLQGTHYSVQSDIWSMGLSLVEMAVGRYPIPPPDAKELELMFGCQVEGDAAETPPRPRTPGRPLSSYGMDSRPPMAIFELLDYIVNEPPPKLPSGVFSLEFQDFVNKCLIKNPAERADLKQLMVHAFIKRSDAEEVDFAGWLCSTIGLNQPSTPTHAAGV

A549 [13] = experiment: Induction of cell cycle arrest in human A549 cells assessed as accumulation of cells at S phase at 5 uM incubated for 24 hrs by propidium iodide staining based flow cytometry (reference value: 38.18%); format: functional
A549 [14] = experiment: Induction of cell cycle arrest in human A549 cells assessed as accumulation of cells at G2 phase at […] incubated for 24 hrs by propidium iodide staining based flow cytometry (reference value: 7.36%); format: functional; details: dose 2.5 µM
A549 [15] = experiment: Induction of apoptosis in human A549 cells assessed as viable cells at 5 uM measured after 24 hrs by AnnexinV-FITC/PI staining based flow cytometry (reference value: 93.25%); format: functional; details: read-out: Activity
[16] = Tmax in Sprague-Dawley rat at 10 mg/kg, po by LC-MS/MS analysis; format: ADME, organism-based; details: in vivo
A549 [17] = experiment: Induction of apoptosis in human A549 cells assessed as early apoptotic cells at 10 uM measured after 24 hrs by AnnexinV-FITC/PI staining based flow cytometry (reference value: 1.26%); format: functional
A549 [18] = experiment: Induction of apoptosis in human A549 cells assessed as late apoptotic cells at 10 uM measured after 24 hrs by AnnexinV-FITC/PI staining based flow cytometry (reference value: 1.47%); format: functional
[19] = target: Vascular endothelial growth factor receptor 2 (Homo sapiens, UniProt P35968); experiment: Inhibition of VEGFR2 (unknown origin)
Vascular endothelial growth factor receptor 2, sequence (P35968 whole entry): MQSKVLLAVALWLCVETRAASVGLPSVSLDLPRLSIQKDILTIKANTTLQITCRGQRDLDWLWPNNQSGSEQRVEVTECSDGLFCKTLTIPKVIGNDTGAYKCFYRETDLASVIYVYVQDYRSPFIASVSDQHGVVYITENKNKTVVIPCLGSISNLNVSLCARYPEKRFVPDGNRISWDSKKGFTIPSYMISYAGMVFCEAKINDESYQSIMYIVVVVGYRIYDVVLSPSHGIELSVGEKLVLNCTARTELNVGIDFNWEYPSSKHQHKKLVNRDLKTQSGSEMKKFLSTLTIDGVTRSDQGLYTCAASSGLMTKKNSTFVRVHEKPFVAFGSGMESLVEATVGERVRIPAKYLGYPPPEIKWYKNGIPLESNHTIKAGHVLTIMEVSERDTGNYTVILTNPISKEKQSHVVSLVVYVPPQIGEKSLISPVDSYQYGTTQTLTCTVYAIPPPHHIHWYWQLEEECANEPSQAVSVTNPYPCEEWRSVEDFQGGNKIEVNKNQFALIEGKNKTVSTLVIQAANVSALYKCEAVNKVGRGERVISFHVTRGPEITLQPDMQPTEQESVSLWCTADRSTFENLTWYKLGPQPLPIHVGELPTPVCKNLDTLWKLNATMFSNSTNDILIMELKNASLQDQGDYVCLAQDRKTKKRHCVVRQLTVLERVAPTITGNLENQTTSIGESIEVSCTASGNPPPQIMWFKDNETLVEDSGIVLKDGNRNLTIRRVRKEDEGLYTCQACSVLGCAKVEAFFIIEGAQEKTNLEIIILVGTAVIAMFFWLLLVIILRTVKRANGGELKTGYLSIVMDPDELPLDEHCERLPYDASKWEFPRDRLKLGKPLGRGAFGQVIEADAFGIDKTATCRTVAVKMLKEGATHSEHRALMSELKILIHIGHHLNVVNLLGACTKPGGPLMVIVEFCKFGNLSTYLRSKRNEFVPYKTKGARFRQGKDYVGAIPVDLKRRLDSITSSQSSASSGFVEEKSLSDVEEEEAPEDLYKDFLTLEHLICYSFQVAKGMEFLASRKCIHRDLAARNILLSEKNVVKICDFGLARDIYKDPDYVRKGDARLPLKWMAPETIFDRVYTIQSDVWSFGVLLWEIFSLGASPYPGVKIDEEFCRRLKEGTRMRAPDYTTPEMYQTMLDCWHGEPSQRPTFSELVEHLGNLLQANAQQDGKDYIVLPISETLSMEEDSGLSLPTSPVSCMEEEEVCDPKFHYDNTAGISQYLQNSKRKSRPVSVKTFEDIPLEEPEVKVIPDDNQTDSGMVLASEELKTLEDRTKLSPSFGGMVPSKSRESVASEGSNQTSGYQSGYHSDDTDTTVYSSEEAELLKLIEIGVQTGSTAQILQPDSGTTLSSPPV

A549 [20] = experiment: Induction of cell cycle arrest in human A549 cells assessed as accumulation of cells at G2 phase at 10 uM incubated for 24 hrs by propidium iodide staining based flow cytometry (reference value: 7.36%); format: functional
A549 [21] = experiment: Induction of apoptosis in human A549 cells assessed as necrotic cells at 5 uM measured after 24 hrs by AnnexinV-FITC/PI staining based flow cytometry (reference value: 4.01%); format: functional
[22] = target: Hepatocyte growth factor receptor (Homo sapiens, UniProt P08581); experiment: Inhibition of c-Met (unknown origin)
Hepatocyte growth factor receptor, sequence (P08581 whole entry): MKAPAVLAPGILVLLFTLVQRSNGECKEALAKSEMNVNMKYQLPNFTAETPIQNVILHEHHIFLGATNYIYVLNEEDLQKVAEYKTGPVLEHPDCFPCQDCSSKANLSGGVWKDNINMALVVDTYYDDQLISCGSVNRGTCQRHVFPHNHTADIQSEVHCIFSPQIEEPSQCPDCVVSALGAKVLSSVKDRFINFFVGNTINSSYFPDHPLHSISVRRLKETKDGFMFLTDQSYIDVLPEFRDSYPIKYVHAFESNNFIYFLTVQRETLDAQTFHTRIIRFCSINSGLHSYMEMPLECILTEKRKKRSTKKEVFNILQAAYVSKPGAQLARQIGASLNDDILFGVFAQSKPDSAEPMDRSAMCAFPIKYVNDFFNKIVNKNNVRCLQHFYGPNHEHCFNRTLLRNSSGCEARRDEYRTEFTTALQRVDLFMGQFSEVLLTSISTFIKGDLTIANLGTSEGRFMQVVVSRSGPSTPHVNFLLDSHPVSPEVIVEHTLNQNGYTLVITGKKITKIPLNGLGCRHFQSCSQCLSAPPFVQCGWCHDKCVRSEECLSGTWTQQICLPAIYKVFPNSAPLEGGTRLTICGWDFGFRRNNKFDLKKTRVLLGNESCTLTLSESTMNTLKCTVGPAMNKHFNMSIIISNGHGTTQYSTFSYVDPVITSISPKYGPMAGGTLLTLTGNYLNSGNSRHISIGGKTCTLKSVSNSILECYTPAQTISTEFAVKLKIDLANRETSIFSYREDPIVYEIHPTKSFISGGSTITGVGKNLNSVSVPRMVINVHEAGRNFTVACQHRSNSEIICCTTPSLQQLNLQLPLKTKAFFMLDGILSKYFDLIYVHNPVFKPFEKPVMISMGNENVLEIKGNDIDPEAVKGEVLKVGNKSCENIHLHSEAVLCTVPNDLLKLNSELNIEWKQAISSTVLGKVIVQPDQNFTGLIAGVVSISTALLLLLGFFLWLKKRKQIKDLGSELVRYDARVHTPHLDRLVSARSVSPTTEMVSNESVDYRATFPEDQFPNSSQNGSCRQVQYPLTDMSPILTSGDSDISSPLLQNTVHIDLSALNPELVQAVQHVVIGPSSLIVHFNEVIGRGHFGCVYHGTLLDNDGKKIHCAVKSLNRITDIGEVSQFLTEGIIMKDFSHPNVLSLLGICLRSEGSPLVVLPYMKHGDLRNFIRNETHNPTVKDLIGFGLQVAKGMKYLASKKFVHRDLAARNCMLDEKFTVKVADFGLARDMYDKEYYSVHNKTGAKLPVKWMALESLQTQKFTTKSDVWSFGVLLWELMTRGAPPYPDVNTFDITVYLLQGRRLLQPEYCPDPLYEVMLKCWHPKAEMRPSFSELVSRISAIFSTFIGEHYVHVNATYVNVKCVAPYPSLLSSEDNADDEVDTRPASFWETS

[23] = target: T1, Receptor-type tyrosine-protein kinase FLT3 (Homo sapiens, UniProt P36888); experiment: Inhibition of Flt3 (unknown origin)
T1 sequence (P36888 whole entry): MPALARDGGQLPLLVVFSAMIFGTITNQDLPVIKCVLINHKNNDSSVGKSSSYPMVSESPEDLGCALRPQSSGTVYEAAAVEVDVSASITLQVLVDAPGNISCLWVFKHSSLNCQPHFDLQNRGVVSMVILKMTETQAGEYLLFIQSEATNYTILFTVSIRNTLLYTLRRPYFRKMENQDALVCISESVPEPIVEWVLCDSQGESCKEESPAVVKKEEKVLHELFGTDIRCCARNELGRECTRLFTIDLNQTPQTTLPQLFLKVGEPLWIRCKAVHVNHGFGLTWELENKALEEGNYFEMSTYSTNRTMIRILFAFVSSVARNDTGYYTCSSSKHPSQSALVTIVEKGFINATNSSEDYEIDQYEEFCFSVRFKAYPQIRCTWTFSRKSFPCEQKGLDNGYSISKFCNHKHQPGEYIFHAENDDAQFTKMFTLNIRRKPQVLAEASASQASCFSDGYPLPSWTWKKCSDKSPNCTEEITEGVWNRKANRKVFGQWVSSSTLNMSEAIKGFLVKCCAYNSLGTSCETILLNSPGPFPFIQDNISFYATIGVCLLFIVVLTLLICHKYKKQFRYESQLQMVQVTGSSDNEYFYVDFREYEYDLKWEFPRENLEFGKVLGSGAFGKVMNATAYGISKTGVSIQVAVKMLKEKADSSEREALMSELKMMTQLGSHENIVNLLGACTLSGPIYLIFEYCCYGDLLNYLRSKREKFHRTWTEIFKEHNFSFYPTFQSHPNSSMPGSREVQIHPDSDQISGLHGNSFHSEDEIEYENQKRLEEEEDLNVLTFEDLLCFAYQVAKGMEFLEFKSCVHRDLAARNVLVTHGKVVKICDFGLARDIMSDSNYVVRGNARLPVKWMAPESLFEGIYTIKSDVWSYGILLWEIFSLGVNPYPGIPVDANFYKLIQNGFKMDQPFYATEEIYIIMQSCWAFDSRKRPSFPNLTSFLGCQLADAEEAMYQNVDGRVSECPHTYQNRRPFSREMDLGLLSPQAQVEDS

A549 [24] = experiment: Induction of apoptosis in human A549 cells assessed as necrotic cells at […] measured after 24 hrs by AnnexinV-FITC/PI staining based flow cytometry (reference value: 4.01%); format: functional; details: dose 2.5 µM
[25] = Cmax in Sprague-Dawley rat at 10 mg/kg, po by LC-MS/MS analysis; format: ADME, organism-based; details: in vivo
[26] = Oral bioavailability in Sprague-Dawley rat at 10 mg/kg by LC-MS/MS analysis; format: ADME, organism-based; details: in vivo
A549 [27] = experiment: Induction of morphological changes in human A549 cells assessed as abnormal cell morphology at 1.1 uM measured after 12 hrs by acridine orange staining based fluorescence microscopy; format: functional

- IC50 (HeLa): 0.82 µM
- AUC(0-inf) [4]: 2870 ng·h/mL
- AUC(0-t) [5]: 2860 ng·h/mL
- AUC(0-inf) [9]: 3400 ng·h/mL
- IC50 [10]: > 100 µM
- half-life [11]: 2.5 h
- IC50 [12]: > 100 µM
- Tmax [16]: 2.7 h
- IC50 [19]: > 100 µM
- IC50 [22]: 0.0465 µM
- IC50 [23]: > 100 µM
- Cmax [25]: 390 ng/mL
- bioavailability [26]: 13.2%
Structure (SMILES): O=C(NCCCN1CCOCC1)c1cc(Oc2ccc(NC(=O)c3cn(-c4ccc(F)c(Cl)c4)c4ncccc4c3=O)cc2F)ccn1
- Activity (A549 [1]): 11.77%
- Activity (A549 [2]): 4.29%
- Activity (A549 [3]): 1.57%
- Activity (A549 [6]): 57.38%
- Activity (A549 [7]): 58.67%
- Activity (A549 [8]): 55.95%
- Activity (A549 [13]): 30.85%
- Activity (A549 [14]): 8.89%
- viability at 5 µM (A549 [15]): 85.2%
- Activity (A549 [17]): 5.57%
- Activity (A549 [18]): 8.25%
- Activity (A549 [20]): 12.65%
- Activity (A549 [21]): 7.49%
- Activity (A549 [24]): 3.34%
- Activity (A549 [27]): Active
